The results in this text go back to ChEMBL document CHEMBL3779792, “Anti-proliferative evaluation of monoterpene derivatives against leukemia” (Eur J Med Chem, 2016).

Experiment [1] can be described thus: Cytotoxicity against human NALM6 cells after 72 hrs by Cell-Titer Glo assay. Particulars: NALM-6, 72 h. The experiment is classed as functional, cell-based.
The nature of experiment [2]: Cytotoxicity against human SEM cells after 72 hrs by Cell-Titer Glo assay. The experiment is classed as functional, cell-based.
In a further experiment the test system is HepG2. The experiment can be described thus: Cytotoxicity against human HepG2 cells after 72 hrs by Cell-Titer Glo assay. Particulars: HepG2, 72 h. The experiment is classed as functional, cell-based.
The test system of the next experiment is Raji. As to the kind of experiment: Cytotoxicity against human Raji cells after 72 hrs by Cell-Titer Glo assay. The experiment is classed as functional, cell-based.
For the next experiment, the system named is Jurkat. The experiment can be described thus: Cytotoxicity against human Jurkat cells after 72 hrs by Cell-Titer Glo assay. Type of experiment: functional, cell-based.
The next experiment relates to BJ. The experiment can be described thus: Cytotoxicity against human BJ cells after 72 hrs by Cell-Titer Glo assay. Type of experiment: cell-based.
A further experiment relates to HEK293. As to the kind of experiment: Cytotoxicity against HEK293 cells after 72 hrs by Cell-Titer Glo assay. The experiment is classed as cell-based. Particulars: Homo sapiens, HEK293, 72 h.

The term EC50 denotes the concentration that produces a half-maximal response. A high value points to a need for much substance. Turning to `C=C[C@@](C)(/C=C/c1ccc(O)cc1)CC/C=C/C(=O)OCc1ccccc1`, the EC50 in experiment [1] is greater than 43.5 µM; in experiment [2] it was greater than 36.6 µM; in the experiment with HepG2, greater than 52.1 µM; in the experiment on Raji, greater than 26 µM; with Jurkat, greater than 49 µM; in the experiment with BJ it was greater than 36.6 µM. In the experiment with HEK293, this compound displayed an EC50 greater than 36.6 µM.
Turning to `C=C[C@@](C)(/C=C/c1ccc(OS(=O)(=O)c2ccc(C)cc2)cc1)CCC=C(C)C`, the EC50 in experiment [1] is greater than 43.5 µM; in experiment [2], greater than 43.5 µM; with HepG2 it was greater than 52.1 µM; in the experiment with Raji, greater than 26 µM; in the experiment with Jurkat, greater than 49 µM; with BJ, greater than 36.6 µM. In addition, in the experiment with HEK293, the concentration for a half-maximal effect (EC50) is greater than 36.6 µM.
As for `CCOc1ccc(/C=C/[C@@](C)(/C=C/c2ccc(O)cc2)CCC=C(C)C)cc1`, the EC50 is greater than 43.5 µM in experiment [1]; greater than 36.6 µM in experiment [2]; greater than 52.1 µM in the experiment on HepG2; greater than 26 µM in the experiment on Raji; greater than 49 µM with Jurkat; greater than 36.6 µM in the experiment on BJ. In addition, in the experiment with HEK293, the EC50 was greater than 36.6 µM.
In the case of `C=C[C@@](C)(/C=C/c1ccc(O)cc1)CC/C=C(C)/C=C/C(=O)OCC`, the EC50 in experiment [1] is 0.815 µM; in experiment [2] it was greater than 36.6 µM; in the experiment on HepG2 it was greater than 52.1 µM; in the experiment on Raji, greater than 26 µM; with Jurkat, greater than 49 µM; in the experiment with BJ, greater than 36.6 µM. Also, the EC50 in the experiment on HEK293 is greater than 36.6 µM.
Regarding `C=C[C@@](C)(/C=C/c1ccc(O)cc1)CC/C=C/C(=O)c1ccccc1`, the EC50 in experiment [1] was greater than 43.5 µM; in experiment [2] it was greater than 36.6 µM; in the experiment with HepG2 it was greater than 52.1 µM; with Raji it was greater than 26 µM; with Jurkat, greater than 49 µM; with BJ, greater than 36.6 µM. In the experiment on HEK293, the EC50 is greater than 36.6 µM.
With `C=C[C@@](C)(/C=C/c1ccc(O)c(/C=C/C(=O)OCC)c1)CCC=C(C)C`, the EC50 was 20.9 µM in experiment [1]; greater than 36.6 µM in experiment [2]; greater than 52.1 µM with HepG2; greater than 26 µM in the experiment with Raji; greater than 49 µM in the experiment with Jurkat; greater than 36.6 µM with BJ. For the same compound, in the experiment with HEK293, the EC50 is greater than 36.6 µM.
Consider `C=C[C@@](C)(/C=C/c1ccc(O)c(/C=C/c2ccc(Cl)c(Cl)c2)c1)CCC=C(C)C`, for which the EC50 in experiment [1] was 7.51 µM; in experiment [2], greater than 7.51 µM; with HepG2 it was greater than 52.1 µM; in the experiment on Raji, greater than 26 µM; in the experiment on Jurkat, greater than 49 µM; with BJ, greater than 13 µM. In addition, the EC50 in the experiment on HEK293 is greater than 36.6 µM.
On to `C=C[C@@](C)(/C=C/c1ccc(O)c(/C=C/C(=O)O)c1)CCC=C(C)C`, for which the 50% effective concentration (EC50) in experiment [1] was greater than 43.5 µM; in experiment [2], greater than 36.6 µM; in the experiment with HepG2, greater than 52.1 µM; with Raji, greater than 26 µM; with Jurkat it was greater than 49 µM; in the experiment on BJ, greater than 36.6 µM. Moreover, the 50% effective concentration (EC50) in the experiment on HEK293 was greater than 36.6 µM.
With `C=C[C@@](C)(/C=C/c1ccc(O)cc1)CC/C=C(C)/C=N/N`, the EC50 was greater than 43.5 µM in experiment [1]; greater than 36.6 µM in experiment [2]; greater than 52.1 µM with HepG2; greater than 26 µM in the experiment with Raji; greater than 49 µM in the experiment with Jurkat; greater than 36.6 µM in the experiment with BJ. In the experiment on HEK293, this compound had an EC50 greater than 36.6 µM.
As for `C=C[C@@](C)(/C=C/c1ccc(O)cc1)CCCO`, the EC50 is greater than 43.5 µM in experiment [1]; greater than 36.6 µM in experiment [2]; greater than 52.1 µM in the experiment on HepG2; greater than 26 µM in the experiment with Raji; greater than 49 µM in the experiment on Jurkat; greater than 36.6 µM in the experiment on BJ. In the experiment on HEK293, the EC50 is greater than 36.6 µM.
On to `C=C[C@](C)(CCCC(C)C)CCc1ccc(O)cc1`, for which the EC50 is 27.5 µM in experiment [1]; greater than 36.6 µM in experiment [2]; greater than 52.1 µM in the experiment with HepG2; greater than 26 µM with Raji; greater than 49 µM in the experiment with Jurkat; greater than 36.6 µM in the experiment on BJ. This compound also registered an EC50 with HEK293 greater than 36.6 µM.
Regarding `C=C[C@@](C)(/C=C/c1ccc(O)c(/C=C/C(=O)NCc2ccc(C(F)(F)F)cc2)c1)CCC=C(C)C`, the EC50 in experiment [1] is greater than 43.5 µM; in experiment [2], greater than 36.6 µM; in the experiment with HepG2, greater than 52.1 µM; with Raji, greater than 26 µM; in the experiment with Jurkat it was greater than 49 µM; in the experiment with BJ, greater than 36.6 µM. The EC50 in the experiment on HEK293 is greater than 36.6 µM.
On to `COc1ccc(/C=C/[C@@](C)(/C=C/c2ccc(O)c(/C=C/C(=O)c3ccccc3)c2)CCC=C(C)C)cc1`, for which the EC50 in experiment [1] was greater than 43.5 µM; in experiment [2], 30 µM; with HepG2 it was greater than 52.1 µM; in the experiment with Raji it was greater than 26 µM; with Jurkat it was greater than 49 µM; in the experiment on BJ, greater than 36.6 µM. The EC50 in the experiment on HEK293 was greater than 36.6 µM.
For the compound `C=C[C@@](C)(/C=C/c1ccc(O)cc1)CCC1OC1(C)C` (some centres not stated), the EC50 in experiment [1] is greater than 43.5 µM; in experiment [2] it was greater than 36.6 µM; in the experiment with HepG2, greater than 52.1 µM; in the experiment on Raji, greater than 22.6 µM; in the experiment with Jurkat, greater than 49 µM; in the experiment on BJ, greater than 36.6 µM. Moreover, in the experiment with HEK293, the EC50 was greater than 36.6 µM.
On to `COc1ccc(/C=C/[C@@](C)(/C=C/c2ccc(O)c(/C=C/C(C)=O)c2)CCC=C(C)C)cc1`, for which the EC50 is greater than 43.5 µM in experiment [1]; 8.67 µM in experiment [2]; greater than 52.1 µM with HepG2; greater than 26 µM with Raji; greater than 49 µM in the experiment on Jurkat; 12.3 µM with BJ. For the same compound, the EC50 with HEK293 turned out to be 14.6 µM.
Take `CCOC(=O)/C=C/c1cc(/C=C/[C@](C)(/C=C/c2ccc(OC)cc2)CCC=C(C)C)ccc1O`: the EC50 was greater than 43.5 µM in experiment [1]; greater than 36.6 µM in experiment [2]; greater than 52.1 µM with HepG2; greater than 26 µM with Raji; greater than 49 µM in the experiment on Jurkat; greater than 36.6 µM in the experiment on BJ. This compound gave an EC50 with HEK293 greater than 36.6 µM.
In the case of `C=C[C@@](C)(/C=C/c1ccc(OCc2ccccc2)cc1)CCC=C(C)C`, the concentration giving a half-maximal response (EC50) was greater than 43.5 µM in experiment [1]; greater than 36.6 µM in experiment [2]; greater than 52.1 µM in the experiment with HepG2; greater than 26 µM with Raji; greater than 49 µM in the experiment on Jurkat; greater than 36.6 µM with BJ. In the experiment on HEK293, this compound returned an EC50 greater than 36.6 µM.
As for `C=C[C@@](C)(/C=C/c1ccc(O)c(/C=C/c2ccc(F)cc2)c1)CCC=C(C)C`, the EC50 was greater than 43.5 µM in experiment [1]; greater than 36.6 µM in experiment [2]; greater than 52.1 µM with HepG2; greater than 26 µM in the experiment on Raji; greater than 49 µM with Jurkat; greater than 36.6 µM in the experiment with BJ. In the experiment with HEK293, the EC50 was greater than 36.6 µM.
In the case of `C=C[C@@](C)(/C=C/c1ccc(O)cc1)CC/C=C(C)/C=C/C(=O)OCc1ccccc1`, the EC50 was 36 µM in experiment [1]; greater than 36.6 µM in experiment [2]; greater than 52.1 µM in the experiment with HepG2; greater than 26 µM in the experiment with Raji; greater than 49 µM in the experiment on Jurkat; greater than 36.6 µM in the experiment with BJ. In addition, the concentration giving a half-maximal response (EC50) in the experiment on HEK293 was greater than 36.6 µM.
`COc1ccc(/C=C/[C@@](C)(/C=C/c2ccc(O)c(C=O)c2)CCC=C(C)C)cc1`: the concentration for a half-maximal effect (EC50) was greater than 43.5 µM in experiment [1]; 4.55 µM in experiment [2]; greater than 26 µM in the experiment with HepG2; 13 µM with Raji; greater than 49 µM with Jurkat; 9.8 µM in the experiment with BJ. For the same compound, in the experiment with HEK293, the concentration for a half-maximal effect (EC50) was determined as 2.27 µM.
With `C=C[C@@](C)(/C=C/c1ccc(O)cc1)CCC=C(C)C` [BAKUCHIOL], the concentration giving a half-maximal response (EC50) in experiment [1] was 38 µM; in experiment [2] it was 15.3 µM; in the experiment with HepG2 it was greater than 52.1 µM; in the experiment with Raji, greater than 26 µM; with Jurkat, greater than 49 µM; in the experiment on BJ, greater than 36.6 µM. Also, the EC50 in the experiment with HEK293 is greater than 36.6 µM.
